PubChem BioAssay (NCI)
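Where inhibition never reached the appropriate level, the endpoint shown equals the highest concentration tested. Otherwise, values were interpolated linearly from a five-concentration, 48-hour dose response in 96-well plates. GI50 marks 50% less growth. TGI: concentration producing complete growth inhibition.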

Tests used:
Assay in all cases: growth of human tumour cells (NCI), 48 h
BT-549 breast = test system: BT-549 breast
RPMI-8226 leukemia = test system: RPMI-8226 leukemia
CCRF-CEM leukemia = test system: CCRF-CEM leukemia
HCC-2998 colon = test system: HCC-2998 colon
PC-3 prostate = test system: PC-3 prostate
HOP-62 NSCLC = test system: HOP-62 NSCLC
MDA-MB-231 breast = test system: MDA-MB-231 breast
SNB-75 CNS = test system: SNB-75 CNS
DU-145 prostate = test system: DU-145 prostate
SK-MEL-5 melanoma = test system: SK-MEL-5 melanoma
LOX IMVI melanoma = test system: LOX IMVI melanoma
HCT-15 colon = test system: HCT-15 colon
OVCAR-8 ovarian = test system: OVCAR-8 ovarian
NCI-H460 lung = test system: NCI-H460 lung
A498 renal = test system: A498 renal
MALME-3M melanoma = test system: MALME-3M melanoma
HT29 colon = test system: HT29 colon
UO-31 renal = test system: UO-31 renal
SK-MEL-2 melanoma = test system: SK-MEL-2 melanoma
NCI/ADR-RES ovarian = test system: NCI/ADR-RES ovarian
MDA-MB-435 = test system: MDA-MB-435
HL-60(TB) leukemia = test system: HL-60(TB) leukemia
EKVX NSCLC = test system: EKVX NSCLC
KM12 colon = test system: KM12 colon
OVCAR-4 ovarian = test system: OVCAR-4 ovarian
SK-OV-3 ovarian = test system: SK-OV-3 ovarian
U251 CNS = test system: U251 CNS
SK-MEL-28 melanoma = test system: SK-MEL-28 melanoma
COLO 205 colon = test system: COLO 205 colon
NCI-H226 lung = test system: NCI-H226 lung
SF-539 CNS = test system: SF-539 CNS
MOLT-4 leukemia = test system: MOLT-4 leukemia
T-47D breast = test system: T-47D breast
786-0 renal = test system: 786-0 renal
SR leukemia = test system: SR leukemia
HOP-92 NSCLC = test system: HOP-92 NSCLC
NCI-H23 lung = test system: NCI-H23 lung
SF-268 CNS = test system: SF-268 CNS
NCI-H522 lung = test system: NCI-H522 lung
HS 578T breast = test system: HS 578T breast
ACHN renal = test system: ACHN renal
SW-620 colon = test system: SW-620 colon
UACC-62 melanoma = test system: UACC-62 melanoma
MCF7 breast = test system: MCF7 breast
M14 melanoma = test system: M14 melanoma
K-562 leukemia = test system: K-562 leukemia
OVCAR-5 ovarian = test system: OVCAR-5 ovarian
SNB-19 CNS = test system: SNB-19 CNS
RXF 393 renal = test system: RXF 393 renal
TK-10 renal = test system: TK-10 renal
SN12C renal = test system: SN12C renal
IGROV1 ovarian = test system: IGROV1 ovarian
SF-295 CNS = test system: SF-295 CNS
HCT-116 colon = test system: HCT-116 colon
CAKI-1 renal = test system: CAKI-1 renal
OVCAR-3 ovarian = test system: OVCAR-3 ovarian
A549 NSCLC = test system: A549 NSCLC

`Cn1cc(-c2nonc2-c2cn(C)c3ccc(F)cc23)c2ccccc21` gave a GI50 (BT-549 breast) of 923 nM, a TGI (BT-549 breast) greater than 100000 nM and a GI50 (RPMI-8226 leukemia) of 463 nM. The TGI (RPMI-8226 leukemia) was greater than 100000 nM, the GI50 (CCRF-CEM leukemia) was 319 nM and the TGI (CCRF-CEM leukemia) was greater than 100000 nM. It also gave a GI50 (HCC-2998 colon) of 958 nM, a TGI (HCC-2998 colon) greater than 100000 nM and a GI50 (PC-3 prostate) of 427 nM. The TGI (PC-3 prostate) was greater than 100000 nM, the GI50 (HOP-62 NSCLC) was 590 nM and the TGI (HOP-62 NSCLC) was greater than 100000 nM. It also gave a GI50 (MDA-MB-231 breast) of 869 nM, a TGI (MDA-MB-231 breast) greater than 100000 nM and a GI50 (SNB-75 CNS) of 206 nM. For the same molecule, the TGI (SNB-75 CNS) was 702 nM, the GI50 (DU-145 prostate) was 530 nM and the TGI (DU-145 prostate) was greater than 100000 nM. It also gave a GI50 (SK-MEL-5 melanoma) of 502 nM, a TGI (SK-MEL-5 melanoma) greater than 100000 nM and a GI50 (LOX IMVI melanoma) of 564 nM. The TGI (LOX IMVI melanoma) was greater than 100000 nM, the GI50 (HCT-15 colon) was 398 nM and the TGI (HCT-15 colon) was greater than 100000 nM. The GI50 (OVCAR-8 ovarian) was 630 nM, the TGI (OVCAR-8 ovarian) was greater than 100000 nM and the GI50 (NCI-H460 lung) was 390 nM. For the same molecule, the TGI (NCI-H460 lung) was greater than 100000 nM, the GI50 (A498 renal) was 273 nM and the TGI (A498 renal) was 976 nM. For the same molecule, the GI50 (MALME-3M melanoma) was 540 nM, the TGI (MALME-3M melanoma) was greater than 100000 nM and the GI50 (HT29 colon) was 346 nM. It also gave a TGI (HT29 colon) greater than 100000 nM, a GI50 (UO-31 renal) of 438 nM and a TGI (UO-31 renal) greater than 100000 nM. It also gave a GI50 (SK-MEL-2 melanoma) of 552 nM, a TGI (SK-MEL-2 melanoma) greater than 100000 nM and a GI50 (NCI/ADR-RES ovarian) of 395 nM. For the same molecule, the TGI (NCI/ADR-RES ovarian) was greater than 58300 nM, the GI50 (MDA-MB-435) was 199 nM and the TGI (MDA-MB-435) was 623 nM. The GI50 (HL-60(TB) leukemia) was 306 nM, the TGI (HL-60(TB) leukemia) was 2300 nM and the GI50 (EKVX NSCLC) was 721 nM. It also gave a TGI (EKVX NSCLC) greater than 100000 nM, a GI50 (KM12 colon) of 433 nM and a TGI (KM12 colon) greater than 100000 nM. It also gave a TGI (OVCAR-4 ovarian) greater than 100000 nM, a GI50 (SK-OV-3 ovarian) of 594 nM and a TGI (SK-OV-3 ovarian) greater than 100000 nM. It also gave a GI50 (U251 CNS) of 469 nM, a TGI (U251 CNS) greater than 100000 nM and a GI50 (SK-MEL-28 melanoma) of 3500 nM. The TGI (SK-MEL-28 melanoma) was greater than 100000 nM, the GI50 (COLO 205 colon) was 856 nM and the TGI (COLO 205 colon) was greater than 100000 nM. The GI50 (NCI-H226 lung) was 2560 nM, the TGI (NCI-H226 lung) was greater than 100000 nM and the GI50 (SF-539 CNS) was 291 nM. For the same molecule, the TGI (SF-539 CNS) was 1580 nM, the GI50 (MOLT-4 leukemia) was 685 nM and the TGI (MOLT-4 leukemia) was greater than 100000 nM. The GI50 (T-47D breast) was 809 nM, the TGI (T-47D breast) was greater than 100000 nM and the GI50 (786-0 renal) was 614 nM. The TGI (786-0 renal) was greater than 100000 nM, the GI50 (SR leukemia) was 269 nM and the TGI (SR leukemia) was greater than 100000 nM. It also gave a GI50 (HOP-92 NSCLC) of 439 nM, a TGI (HOP-92 NSCLC) greater than 100000 nM and a GI50 (NCI-H23 lung) of 836 nM. The TGI (NCI-H23 lung) was greater than 100000 nM, the GI50 (SF-268 CNS) was 1210 nM and the TGI (SF-268 CNS) was greater than 100000 nM. The GI50 (NCI-H522 lung) was 357 nM, the TGI (NCI-H522 lung) was greater than 100000 nM and the GI50 (HS 578T breast) was 299 nM. For the same molecule, the GI50 (ACHN renal) was 595 nM, the TGI (ACHN renal) was greater than 100000 nM and the GI50 (SW-620 colon) was 361 nM. It also gave a TGI (SW-620 colon) greater than 100000 nM, a GI50 (UACC-62 melanoma) of 469 nM and a TGI (UACC-62 melanoma) greater than 100000 nM. The GI50 (MCF7 breast) was 366 nM, the TGI (MCF7 breast) was greater than 100000 nM and the GI50 (M14 melanoma) was 342 nM. For the same molecule, the TGI (M14 melanoma) was greater than 100000 nM, the GI50 (K-562 leukemia) was 311 nM and the TGI (K-562 leukemia) was greater than 100000 nM. It also gave a GI50 (OVCAR-5 ovarian) of 1050 nM, a TGI (OVCAR-5 ovarian) greater than 100000 nM and a GI50 (SNB-19 CNS) of 555 nM. The TGI (SNB-19 CNS) was greater than 100000 nM, the GI50 (RXF 393 renal) was 271 nM and the TGI (RXF 393 renal) was 873 nM. The GI50 (TK-10 renal) was greater than 20400 nM, the TGI (TK-10 renal) was greater than 100000 nM and the GI50 (SN12C renal) was 724 nM. For the same molecule, the TGI (SN12C renal) was greater than 100000 nM, the GI50 (IGROV1 ovarian) was 522 nM and the TGI (IGROV1 ovarian) was greater than 100000 nM. The GI50 (SF-295 CNS) was 299 nM, the GI50 (HCT-116 colon) was 432 nM and the TGI (HCT-116 colon) was greater than 100000 nM. It also gave a GI50 (CAKI-1 renal) of 416 nM, a TGI (CAKI-1 renal) greater than 100000 nM and a GI50 (OVCAR-3 ovarian) of 340 nM. It also gave a GI50 (A549 NSCLC) of 703 nM and a TGI (A549 NSCLC) greater than 100000 nM.
